Experimental findings from patent US5750531A, “Pyrimidine derivatives and processes for the preparation thereof” (Yuhan Corporation, priority 1994, dated 1998) are described below.

Test [1] addresses proton pump(H^+ /K^+ ATPase). The test can be described thus: Inhibition of proton pump(H^+ /K^+ ATPase) activity. Conditions: pH 6.0, 37° C., 30 minutes preincubation and 30 minutes reaction; read-out: IC50 Test compound. Format: biochemical. The method, boiled down:
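Enzyme was preincubated with compound at five concentrations for 30 min at 37° C in Tris-HCl pH 6.0 with Mg2+, K+ and NH4Cl. Reaction ran 30 min at 37° C with ATP and was stopped with trichloroacetic acid. K+-stimulated inorganic phosphate release gave IC50 by Litchfield-Wilcoxon.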

Test [2] concerns gastric secretion. The test can be described thus: Inhibition of gastric secretion (pylorus ligation, Shay method). The settings on record: 20 mg/kg intraduodenally, 5 hours; for Rel. Conc.: acid concentration relative to omeprazole; for Relative Acid Output: acid output relative to omeprazole; for Rel. Vol.: gastric juice volume relative to omeprazole. Format: in vivo, Male Sprague-Dawley rats. The method, boiled down: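 Rats under ether anaesthesia had the pylorus ligated, and the stomach was removed 5 h later. Gastric juice was centrifuged at 1,000 g, and its volume and acidity were measured. Relative volume, relative acid concentration and relative acid output […] were then calculated.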

For orientation: IC50 means the point on the concentration scale where inhibition reaches its midpoint.

Structures can show the parent of a compound that is named as a salt.

Turning to `Cc1nc(Nc2ccccc2)nc(N2CCc3ccccc3[C@H]2C)c1C` [Example 22, (R)-5,6-Dimethyl-2-(4-phenylamino)-4-(1-methyl-1,2,3,4-tetrahydroisoquinolin-2-yl)pyrimidine hydrochloride], in test [1], the half-maximal inhibitory concentration (IC50) is 1400 nM. Moreover, in test [2], the Rel. Conc. was 0.8, the “Relative Acid Output” value stood at 0.90 and the Rel. Vol. was 0.99.

Regarding `CCc1nc(N(C)c2ccccc2)nc(N2CCc3ccccc3C2C)c1C.Cl` (centres unmarked) [Example 28, 5-methyl-6-ethyl-2-(N-methylphenylamino)-4-(1-methyl-1,2,3,4-tetrahydroisoquinolin-2-yl)pyrimidine hydrochloride], the IC50 in test [1] is greater than 15000 nM. Further, in test [2], the Rel. Conc. is 0.44, the “Relative Acid Output” value is 0.78 and the Rel. Vol. was found to be 0.71.

Take `Cc1cc(F)ccc1Nc1nc(C)c(C)c(N2CCc3ccsc3C2C)n1.Cl` (centres unmarked) [Example 55, 5,6-dimethyl-2-(2-methyl-4-fluorophenylamino)-4-(7-methyl-4,5,6,7-tetrahydrothieno[2,3-c]pyridin-6-yl)pyrimidine hydrochloride]: in test [1], the IC50 was 2100 nM. In test [2], the Rel. Conc. amounted to 0.11, the “Relative Acid Output” value is 0.51 and the Rel. Vol. was determined as 0.56.

Take `Cc1nc(Nc2ccccc2)nc(N2CCc3ccccc3C2C)c1C.Cl` (centres unmarked) [Example 21, 5,6-dimethyl-2-(phenylamino)-4-(1-methyl-1,2,3,4-tetrahydroisoquinolin-2-yl)pyrimidine hydrochloride]: in test [1], the half-inhibitory concentration (IC50) was 1500 nM. In test [2], the Rel. Conc. was determined as 0.88, the “Relative Acid Output” value was 0.97 and the Rel. Vol. is 1.06.

For `CCc1cc(N2CCc3ccccc3C2)nc(N(C)c2ccccc2)n1.Cl` [Example 39, 6-ethyl-2-(N-methylphenylamino)-4-(1,2,3,4-tetrahydroisoquinolin-2-yl)pyrimidine hydrochloride], in test [1], the IC50 was greater than 15000 nM. Also, in test [2], the Rel. Conc. stood at 0.18, the “Relative Acid Output” value came to 0.56 and the Rel. Vol. is 0.58.

For the compound `Cc1cc(F)ccc1Nc1nc(C)c(C)c(N2CCc3ccccc3[C@H]2C)n1.Cl` [Example 13, (R)-5,6-Dimethyl-2-(2-methyl-4-fluorophenylamino)-4-(1-methyl-1,2,3,4-tetrahydroisoquinolin-2-yl)pyrimidine hydrochloride], the IC50 in test [1] turned out to be 500 nM. Moreover, in test [2], the Rel. Conc. is 0.46, the “Relative Acid Output” value was determined as 0.81 and the Rel. Vol. was 1.72.

Consider `Cc1nc(N2CCc3ccccc3C2C)nc(Nc2ccc(F)cc2)c1C.Cl` (centres unmarked) [Example 68, 5,6-dimethyl-4-(4-fluorophenylamino)-2-(1-methyl-1,2,3,4-tetrahydroisoquinolin-2-yl)pyrimidine hydrochloride], for which the half-maximal inhibitory concentration (IC50) in test [1] came out at 3100 nM. Moreover, in test [2], the Rel. Conc. stood at 0.23, the “Relative Acid Output” value is on record as 0.67 and the Rel. Vol. worked out at 1.52.

Consider `CCc1cc(Nc2ccc(F)cc2C)nc(N2CCc3ccccc3C2)n1.Cl` [Example 62, 6-ethyl-4-(2-methyl-4-fluorophenylamino)-2-(1,2,3,4-tetrahydroisoquinolin-2-yl)pyrimidine hydrochloride], for which, in test [1], the 50% inhibitory concentration (IC50) was greater than 20000 nM. For the same compound, in test [2], the Rel. Conc. stood at 0.31, the “Relative Acid Output” value is given as 0.67 and the Rel. Vol. stood at 0.61.

Take `Cc1cc(F)ccc1Nc1nc(C)c(C)c(N2CCc3ccccc3C2C)n1.Cl` (centres unmarked) [Example 12, 5,6-dimethyl-2-(2-methyl-4-fluorophenylamino)-4-(1-methyl-1,2,3,4-tetrahydroisoquinolin-2-yl)pyrimidine hydrochloride]: the IC50 in test [1] was 600 nM. For the same compound, in test [2], the Rel. Conc. was 0.29, the “Relative Acid Output” value is given as 0.75 and the Rel. Vol. worked out at 1.64.

For `Cc1cc(F)ccc1Nc1nc(N2CCc3ccccc3[C@@H]2C)nc(C)c1C.Cl` [Example 67, (S)-5,6-dimethyl-4-(2-methyl-4-fluorophenylamino)-2-(1-methyl-1,2,3,4-tetrahydroisoquinolin-2-yl)pyrimidine hydrochloride], the IC50 in test [1] is 1300 nM. Besides, in test [2], the Rel. Conc. came to 0.31, the “Relative Acid Output” value came out at 0.62 and the Rel. Vol. came out at 1.36.

As for `Cc1cc(F)ccc1Nc1nc(C)c(C)c(N2CCc3ccccc3C2)n1.Cl` [Example 41, 5,6-dimethyl-2-(2-methyl-4-fluorophenylamino)-4-(1,2,3,4-tetrahydroisoquinolin-2-yl)pyrimidine hydrochloride], the IC50 in test [1] amounted to 600 nM. For the same compound, in test [2], the Rel. Conc. came to 1.87, the “Relative Acid Output” value was found to be 1.12 and the Rel. Vol. amounted to 0.94.

Turning to `CCCc1cc(N2CCc3ccccc3C2C)nc(Nc2ccc(F)cc2)n1.Cl` (centres unmarked) [Example 10, 4-(1-methyl-1,2,3,4-tetrahydroisoquinolin-2-yl)-6-propyl-2-(4-fluorophenylamino)pyrimidine hydrochloride], in test [1], the half-maximal inhibitory concentration (IC50) worked out at 10600 nM. Further, in test [2], the Rel. Conc. amounted to 0.47, the “Relative Acid Output” value is listed as 0.55 and the Rel. Vol. turned out to be 0.58.

In the case of `Cc1cc(F)ccc1Nc1nc(N2CCc3ccccc3C2)nc2c1CCCC2.Cl` [Example 83, 4-(2-methyl-4-fluorophenylamino)-2-(1,2,3,4-tetrahydroisoquinolin-2-yl)-5,6,7,8-tetrahydroquinazoline hydrochloride], the IC50 in test [1] is 1400 nM. Further, in test [2], the Rel. Conc. was 1.29, the “Relative Acid Output” value was 1.13 and the Rel. Vol. stood at 1.19.

Turning to `CCc1cc(N2CCc3ccccc3C2)nc(Nc2ccccc2C)n1.Cl` [Example 40, 6-ethyl-2-(2-methylphenylamino)-4-(1,2,3,4-tetrahydroisoquinolin-2-yl)pyrimidine hydrochloride], the half-inhibitory concentration (IC50) in test [1] is 700 nM. Also, in test [2], the Rel. Conc. was found to be 0.36, the “Relative Acid Output” value came out at 0.74 and the Rel. Vol. is 0.71.

Regarding `Cc1cc(F)ccc1Nc1nc(N2CCc3ccccc3[C@H]2C)nc(C)c1C.Cl` [Example 66, (R)-5,6-dimethyl-4-(2-methyl-4-fluorophenylamino)-2-(1-methyl-1,2,3,4-tetrahydroisoquinolin-2-yl)pyrimidine hydrochloride], in test [1], the concentration for half-maximal inhibition (IC50) stood at 900 nM. In addition, in test [2], the Rel. Conc. was determined as 0.47, the “Relative Acid Output” value was found to be 0.85 and the Rel. Vol. was found to be 1.49.

In the case of `Cc1cc(Nc2ccc(F)cc2C)nc(N2CCc3ccsc3C2C)n1.Cl` (centres unmarked) [Example 59, 6-methyl-4-(2-methyl-4-fluorophenylamino)-2-(7-methyl-4,5,6,7-tetrahydrothieno[2,3-c]pyridin-6-yl)pyrimidine hydrochloride], the IC50 in test [1] was roughly 12500 nM. Moreover, in test [2], the Rel. Conc. is 0.25, the “Relative Acid Output” value came out at 0.56 and the Rel. Vol. amounted to 0.51.

On to `CCc1cc(N2CCc3ccccc3C2)nc(Nc2ccc(F)cc2)n1.Cl` [Example 38, 6-ethyl-2-(4-fluorophenylamino)-4-(1,2,3,4-tetrahydroisoquinolin-2-yl)pyrimidine hydrochloride], for which the half-maximal inhibitory concentration (IC50) in test [1] was found to be 2200 nM. Besides, in test [2], the Rel. Conc. came out at 0.37, the “Relative Acid Output” value was found to be 0.74 and the Rel. Vol. amounted to 0.74.

For `CCc1cc(N2CCc3ccccc3C2C)nc(Nc2ccc(F)cc2C)n1.Cl` (centres unmarked) [Example 5, 6-ethyl-2-(2-methyl-4-fluorophenylamino)-4-(1-methyl-1,2,3,4-tetrahydroisoquinolin-2-yl)pyrimidine hydrochloride], the half-maximal inhibitory concentration (IC50) in test [1] is 1300 nM. In test [2], the Rel. Conc. came to 0.27, the “Relative Acid Output” value amounted to 0.61 and the Rel. Vol. came to 0.59.

For `Cc1cc(F)ccc1Nc1nc(N2CCc3ccccc3C2C)nc2c1CCCC2.Cl` (centres unmarked) [Example 82, 4-(2-Methyl-4-fluorophenylamino)-2-(1-methyl-1,2,3,4-tetrahydroisoquinolin-2-yl)-5,6,7,8-tetrahydroquinazoline hydrochloride], in test [1], the IC50 is 1100 nM. In addition, in test [2], the Rel. Conc. amounted to 0.59, the “Relative Acid Output” value stood at 0.79 and the Rel. Vol. stood at 0.69.

In the case of `CCc1cc(Nc2ccc(F)cc2)nc(N2CCc3ccccc3C2)n1.Cl` [Example 63, 6-ethyl-4-(4-fluorophenylamino)-2-(1,2,3,4-tetrahydroisoquinolin-2-yl)pyrimidine hydrochloride], the IC50 in test [1] is roughly 12000 nM. For the same compound, in test [2], the Rel. Conc. worked out at 0.33, the “Relative Acid Output” value is listed as 0.72 and the Rel. Vol. came to 0.69.

On to `Cc1cc(N2CCc3ccsc3C2C)nc(N(C)c2ccccc2)n1.Cl` (centres unmarked) [Example 54, 6-methyl-2-(N-methylphenylamino)-4-(7-methyl-4,5,6,7-tetrahydrothieno[2,3-c]pyridin-6-yl)pyrimidine hydrochloride], for which, in test [1], the half-inhibitory concentration (IC50) was found to be 20600 nM. In test [2], the Rel. Conc. turned out to be 0.23, the “Relative Acid Output” value amounted to 0.75 and the Rel. Vol. amounted to 0.86.

Consider `Cc1cc(F)ccc1Nc1nc(N2CCc3ccccc3C2C)nc(C)c1C.Cl` (centres unmarked) [Example 65, 5,6-dimethyl-4-(2-methyl-4-fluorophenylamino)-2-(1-methyl-1,2,3,4-tetrahydroisoquinolin-2-yl)pyrimidine hydrochloride], for which, in test [1], the IC50 stood at 1000 nM. For the same compound, in test [2], the Rel. Conc. turned out to be 0.35, the “Relative Acid Output” value is listed as 0.71 and the Rel. Vol. is 1.43.

On to `Cc1nc(N(C)c2ccccc2)nc(N2CCc3ccccc3C2C)c1C.Cl` (centres unmarked) [Example 18, 5,6-dimethyl-2-(N-methylphenylamino)-4-(1-methyl-1,2,3,4-tetrahydroisoquinolin-2-yl)pyrimidine hydrochloride], for which the half-inhibitory concentration (IC50) in test [1] was found to be 4200 nM. In addition, in test [2], the Rel. Conc. was found to be 1.82, the “Relative Acid Output” value is 1.39 and the Rel. Vol. turned out to be 1.72.
